Reference: PMC6017655, “In Silico and in Vitro-Guided Identification of Inhibitors of Alkylquinolone-Dependent Quorum Sensing in Pseudomonas aeruginosa” (Molecules : A Journal of Synthetic Chemistry and Natural …, 2018)

Columns and labels:
PA14 biofilms = assay: Biofilm assay on glass coverslips, GFP-labelled PA14; type: cell-based, Pseudomonas aeruginosa
Description: (§1) One of the clinical challenges of P. aeruginosa infections is the difficulty associated with the effective treatment of biofilms due to their high resistance to antibiotics. […] The effect of Ia, with or without tobramycin, on PA14 and PAO1-L biofilms grown on glass coverslips, was determined. […] The experiment was performed using green fluorescent labelled (GFP)-labelled PAO1-L and PA14 strains, grown under four different conditions: (i) no treatment (control); (ii) compound Ia at 8 µM in PA14 and 34 µM in PAO1-L (concentrations equal to 3× IC50); (iii) tobramycin at 100 µg/mL; (iv) Ia and tobramycin, at the same concentrations as (ii) and (iii).
(§2) Biofilms were cultivated on borosilicate glass coverslips in petri dishes. P. aeruginosa strains, PAO1-L and PA14, were labelled by transformation with plasmid pMMG, which constitutively expresses GFP from the Ptac promoter. Labelled strains were grown at 37 °C, for 16 h, in 2 mL RPMI-1640 (Lonza, Slough, UK), supplemented with 20 mM D-glucose (Sigma–Aldrich, Dorset, UK) and 2 µM FeCl3 (Sigma–Aldrich, Dorset, UK). Cultures were diluted 1:100 in fresh medium and allowed to grow for a further 4 h, or until an OD600 of 0.5 was reached. The mid-logarithmic cultures were diluted to an OD600 of 0.01 in 25 mL RPMI, supplemented with glucose and FeCl3, and inoculated into petri dishes containing UV sterilised borosilicate glass coverslips (22 × 22 mm, thickness no1) (VWR, Lutterworth, UK). Bacterial cells were seeded at 37 °C under static conditions for 1.5 h, and compound Ia was added to the culture at a concentration of 34 µM for P. aeruginosa PAO1-L and 8 µM for PA14 before dishes were moved to a shaker at 60 rpm and 37 °C for 15 h to form mature biofilms. Tobramycin and propidium iodide were added to the 15 h-old cultures at concentrations of 100 µg/mL and 2 µM, respectively, followed by further incubation for 4 h. Coverslips were examined under a Laser Scanning Fluorescent Microscope (LSM2, Zeiss, Oberkochen, Germany). Biofilms were visualised using egfp mode at an excitation wavelength of 488nm. Imaging was carried out using Zen 2011 imaging software (Zeiss, Oberkochen, Germany). A total of 5 Z-stacked images were collected per coverslip. Sampling was conducted at random from the central portion of each coverslip. Biomass was calculated using Image J (NIH, Bethesda, MD, USA) and Comstat 2.1. Software package (www.comstat.dk, lyngby, Denmark).

PAO1-L biofilms = assay: Biofilm assay on glass coverslips, GFP-labelled PAO1-L; type: cell-based, Pseudomonas aeruginosa
Description: as §1, §2

[1] = Ia 8 µM, tobramycin 100 µg/mL for 4 h
[2] = Ia 34 µM, tobramycin 100 µg/mL for 4 h

With `O=CN1N=C(c2ccccc2)CC1c1cccc(Nc2ccnc3cc(Cl)ccc23)c1` (stereo not drawn) [Ia] the “Sensitisation of biofilm to tobramycin / effect of combined treatment, PA14” value (PA14 biofilms; Ia 8 µM plus tobramycin 100 µg/mL for 4 h) was “sensitized the biofilm to tobramycin”, the “Effect on biofilm biomass, PA14” value (PA14 biofilms; [1]) was “reducing biomass” and the “Effect on cell viability in biofilm (propidium iodide), PA14” value (PA14 biofilms; [1]) was “little impact on cell viability”. The “Sensitisation of biofilm to tobramycin / effect of combined treatment, PAO1-L” value (PAO1-L biofilms; Ia 34 µM plus tobramycin 100 µg/mL for 4 h) was “sensitized the biofilm to tobramycin”, the “Effect on biofilm biomass, PAO1-L” value (PAO1-L biofilms; [2]) was “reducing biomass” and the “Effect on cell viability in biofilm (propidium iodide), PAO1-L” value (PAO1-L biofilms; [2]) was “little impact on cell viability”.
